Laboratory results: patent US20100130544A1, “USE OF PARASYM[…] ENHANCE AND […] CELL DIFFERENTIATION, RELATED METHODS AND COMPOSITIONS” (UNIVERSITA' DEGLI STUDI DI TORINO, priority 2006, published 2010)

Columns and labels:
[1] = test system: peripheral blood monocytes; experiment: Phenotypic analysis (Western blotting, immunofluorescence) of monocytes stimulated towards hepatocytic type + parasympatholytic; type: cell-based, human; parameters: key to expression of CD34: −−−−− = absence of any fluorescence; + = 1-5 fluorescent cells per optical field; ++ = 6-10 fluorescent cells per optical field; +++ = 10-20 fluorescent cells per optical field; ++++ = 20-50 fluorescent cells per optical field; +++++ > 50 fluorescent cells per optical field; conditions: monocytes Hepatocytic type + parasympath. (HGF medium + 0.2 μg/mL scopolamine)
Procedure: (§1) Furthermore, samples of the same cells, taken every seventh day of incubation, have been incubated for 5-8 minutes with 2% lidocaine (Sigma Aldrich, Milan, Italy) in PBS and the solution thus obtained harvested, as described in the bibliography.
(§2) Western blotting first makes use of denaturing electrophoresis (SDS-PAGE) in order to separate the various proteins according to molecular weight, by cancelling out the charges on the amino acids which might influence migration. The cell samples, suspended in lysis buffer (1% SDS, 30 mM Tris pH 6.8, 5% glycerol) to which protease inhibitors (Protease Inhibitor Cocktail, Calbiochem, San Diego, Calif., USA) have been added, have been incubated for 30 minutes at 4° C. The lysates thus obtained have been centrifuged at 12,000 rpm for 20 minutes at 4° C. and the supernatants collected; the protein concentrations of the samples have been measured using the Bio-Rad method (Benchmark Plus assay, Bio-Rad). Prior to electrophoresis, the samples have been boiled for 5 minutes in the presence of beta-mercaptoethanol and bromophenol blue. The samples have been subjected to electrophoresis on a 12% gel (SDS-PAGE) and then transferred onto a PVDF membrane (Perkin Elmer Inc.). The membranes have been saturated with […] at room temperature and subsequently incubated overnight, at 4° C., with the following primary antibodies diluted 1:500 in PBS with 5% skimmed milk powder: anti-CD 34 (Santa Cruz Biotechnology, CA, USA), anti-CD 14 (Santa Cruz Biotechnology, CA, USA), anti-CD 45 (Santa Cruz Biotechnology, CA, USA), anti-CD 71 (Santa Cruz Biotechnology, CA, USA), anti-CD 90 (Santa Cruz Biotechnology, CA, USA), anti-CD 29 (Santa Cruz Biotechnology, CA, USA), anti-CD 105 (Santa Cruz Biotechnology, CA, USA), anti CD 117/c-KIT (Santa Cruz Biotechnology, CA, USA), anti c-MET (Santa Cruz Biotechnology, CA, USA), anti cytokeratin 7 (Santa Cruz Biotechnology, CA, USA), anti cytokeratin 8 (Santa Cruz Biotechnology, CA, USA), anti cytokeratin 18 (Santa Cruz Biotechnology, CA, USA), anti cytokeratin 19 (Santa Cruz Biotechnology, CA, USA), anti cytokeratin 7/17 (Santa Cruz Biotechnology, CA, USA), anti albumin (Rockland Immunochemicals, PA, USA), anti alpha-fetoprotein (Monosan Europa, Netherlands). After five washes, the membranes have been incubated with the corresponding secondary antibodies (1:1000) conjugated to horseradish peroxidase (HRP, SantaCruz Biotechnologies Inc., Santa Cruz, Calif., USA) for 1 hour at room temperature.
(§3) Cells in suspension have been incubated with […] MitoTracker Red for 10 minutes at 37° C. […] After three washes in PBS, the cells have been resuspended in a solution of PBS and 0.1% Triton for 1 hour at 4° C. After three washes in PBS, the cells have been seeded onto slide covers and the liquid allowed to evaporate-off in air. The cells have been blocked with 20% normal goat serum for one hour, then incubated for 30 minutes with the following fluorescein isothiocyanate (FITC) conjugated anti-human monoclonal antibodies: anti-CD 34 (Santa Cruz Biotechnology, CA, USA), anti-CD 14 (Santa Cruz Biotechnology, CA, USA), anti-CD 45 (Santa Cruz Biotechnology, CA, USA), anti-CD 71 (Santa Cruz Biotechnology, CA, USA), anti-CD 90 (Santa Cruz Biotechnology, CA, USA), anti-CD 29 (Santa Cruz Biotechnology, CA, USA), anti-CD 105 (Santa Cruz Biotechnology, CA, USA), anti CD 117/c-KIT (Santa Cruz Biotechnology, CA, USA), anti c-KIT (Santa Cruz Biotechnology, CA, USA), anti c-MET (Santa Cruz Biotechnology, CA, USA), anti cytokeratin 7 (Santa Cruz Biotechnology, CA, USA), anti cytokeratin 8 (Santa Cruz Biotechnology, CA, USA), anti cytokeratin 18 (Santa Cruz Biotechnology, CA, USA), anti cytokeratin 19 (Santa Cruz Biotechnology, CA, USA), anti cytokeratin 7/17 (Santa Cruz Biotechnology, CA, USA), anti albumin (Rockland Immunochemicals, PA, USA), anti alpha-fetoprotein (Monosan Europa, Netherlands). […]

THP-1 cells (PSC-THP1) = experiment: Phenotypic analysis (Western blotting, immunofluorescence) of PSC-THP1 stimulated towards hepatocytic type + parasympatholytic; type: cell-based, human; parameters: key to expression of CD34: −−−−− = absence of any fluorescence; + = 1-5 fluorescent cells per optical field; ++ = 6-10 fluorescent cells per optical field; +++ = 10-20 fluorescent cells per optical field; ++++ = 20-50 fluorescent cells per optical field; +++++ > 50 fluorescent cells per optical field; conditions: PSC-THP1 Hepatocytic type + parasympath. (HGF medium + 0.2 μg/mL scopolamine)
Procedure: as §1, §2, §3

[2] = test system: Human mesenchymal pluripotent stem cells (MSCs); experiment: Phenotypic analysis (Western blotting, immunofluorescence) of mesenchymal cells stimulated towards hepatocytic type + parasympatholytic; type: cell-based; conditions: Mesenchymal cells Hepatocytic type + parasympath. (HGF medium + 0.2 μg/mL scopolamine)
Excerpt: Human mesenchymal pluripotent stem cells (MSCs, mesenchymal Stem Cells) have been extracted from samples of bone marrow (BM) taken from the femoral head (spongy tissue and bone marrow) during complete hip-replacement surgery. The nucleated cells have been separated by means of a density gradient (Ficoll-Paque, Amersham) and resuspended in low-glucose Dulbecco's modified Eagle's medium (DMEM-LG, Gibco, Grand Island, N.Y., USA) supplemented with 10% foetal bovine serum (FBS, Sigma), 10 U/mL penicillin G, and 40 μg/mL gentamycin. After 24 hours in culture, the medium, along with any cells in suspension, has been removed by aspiration and fresh medium added onto the adhered cells. The cells have been grown in 75 cm^2 flasks in an incubator with 5% CO2 at a temperature of 37° C. When the cells reach 80% confluence, they are detached using trypsin-EDTA (5 minutes incubation at 37° C. followed by the addition of 5 mL of pure FBS, and the detached cells in suspension are harvested), washed twice by centrifugation at 160 g for 7 minutes at 37° C. in DMEM-LG medium (Gibco; Grand Island, N.Y., USA) free of any supplements. The cells in the pellets thus obtained are resuspended at a concentration of 1×10^6 in fresh DMEM-LG medium (Gibco; Grand Island, N.Y., USA) supplemented with 10% foetal bovine serum (FBS, Sigma), 10 U/mL penicillin G, and 40 μg/mL gentamycin. The cells are reseeded after 1:4 dilution (final concentration 2.5×10^4). In this study, cells after the third passage in continuous culture have been used.
As described above in detail, every seventh day of incubation samples of all confluent MSC and SynC cells have been subjected to immunofluorescence testing of samples adhered onto sell culture slides.
Furthermore, every seventh day of incubation, samples of the same cells have been detached using trypsin-EDTA (5 minutes at a temperature of 37° C. followed by the addition of 5 mL of pure FBS and the detached cells in suspension harvested) and washed twice by centrifugation at 160 g for 7 minutes at 37° C. in DMEM-LG (Gibco; Grand Island, N.Y., USA) without any supplements.
Western blotting first makes use of denaturing electrophoresis (SDS-PAGE) in order to separate the various proteins according to molecular weight, by cancelling out the charges on the amino acids which might influence migration. The cell samples, suspended in lysis buffer (1% SDS, 30 mM Tris pH 6.8, 5% glycerol) to which protease inhibitors (Protease Inhibitor Cocktail, Calbiochem, San Diego, Calif., USA) have been added, have been incubated for 30 minutes at 4° C. The lysates thus obtained have been centrifuged at 12,000 rpm for 20 minutes at 4° C. and the supernatants collected; the protein concentrations of the samples have been measured using the Bio-Rad method (Benchmark Plus assay, Bio-Rad). Prior to electrophoresis, the samples have been boiled for 5 minutes in the presence of beta-mercaptoethanol and bromophenol blue. The samples have been subjected to electrophoresis on a 12% gel (SDS-PAGE) and then transferred onto a PVDF membrane (Perkin Elmer Inc.). […]

Synovial cells (SynCs) = experiment: Phenotypic analysis (Western blotting, immunofluorescence) of synovial cells stimulated towards hepatocytic type + parasympatholytic; type: cell-based, human; conditions: Synovial cells Hepatocytic type + parasympath. (HGF medium + 0.2 μg/mL scopolamine)
Procedure: Synovial cells (SynCs) have been obtained from patients during exeresis and curettage of the synovial membrane inside the femoral-tibial joint cavity. Fresh synovial tissue sections have been disaggregated in collagenase (10 μg per mL of medium, Sigma) for two hours at 37° C. The pellet, washed twice in DMEM-LG (Gibco; Grand Island, N.Y., USA), free of any supplements, by centrifugation at 160 g for 10 minutes and then resuspended in complete low-glucose Dulbecco's modified Eagle's medium ([DMEM-LG] GIBCO; Grand Island, N.Y., USA) supplemented with 10% foetal bovine serum ([FBS] Sigma), 10 U/mL penicillin G, and 40 μg/mL gentamycin, is finally seeded into 75 cm^2 flasks and incubated in 5% CO2 at a temperature of 37° C. After 24 hours, the medium, along with any cells still in suspension, has been aspirated off and fresh medium (DMEM-LG, Gibco; Grand Island, N.Y., USA, supplemented with 10% FBS, Sigma, 10 U/mL penicillin G, and 40 μg/mL gentamycin) has been added over the adhered cells. The cells have been grown in 75 cm^2 flasks in an incubator with 5% CO2 at a temperature of 37° C. When the cells reach 80% confluence, they are detached using trypsin-EDTA (5 minutes incubation at 37° C. followed by the addition of 5 mL of pure FBS, and the detached cells in suspension are harvested), washed twice by centrifugation at 160 g for 7 minutes at 37° C. in DMEM-LG medium (Gibco; Grand Island, N.Y., USA) free of any supplements. The cells in the pellets thus obtained are resuspended at a concentration of 1×10^6 in fresh DMEM-LG medium (Gibco; Grand Island, N.Y., USA) supplemented with 10% foetal bovine serum ([FBS] Sigma), 10 U/mL penicillin G, and 40 μg/mL gentamycin. The cells have been reseeded after 1:4 dilution (final concentration 2.5×10^4). In this study, cells after the second passage in continuous culture have been used.
As described above in detail, every seventh day of incubation samples of all confluent MSC and SynC cells have been subjected to immunofluorescence testing of samples adhered onto sell culture slides. […]
Western blotting first makes use of denaturing electrophoresis (SDS-PAGE) in order to separate the various proteins according to molecular weight, by cancelling out the charges on the amino acids which might influence migration. […] The lysates thus obtained have been centrifuged at 12,000 rpm for 20 minutes at 4° C. and the supernatants collected; the protein concentrations of the samples have been measured using the Bio-Rad method (Benchmark Plus assay, Bio-Rad). […]

For CN1[C@@H]2C[C@@H](OC(=O)[C@H](CO)c3ccccc3)C[C@H]1[C@@H]1O[C@@H]12 [scopolamine, [7(S)-(1α,2β,4β,5α,7β)]-α-(hydroxymethyl)acid benzenacetic-9-methyl-3-oxa-9-azatricyclo[3.3.1.02,4]non-7-yl-ester], the “expression of CD14” value [1] was “+ (+ = 1-5 fluorescent cells per optical field)”, the “expression of CD34” value [1] was “−−−−−” and the “expression of Cytokeratin 7” value [1] was “+++++ (+++++ > 50 fluorescent cells per optical field)”. For the same molecule, the “expression of Cytokeratin 8” value [1] was “++++ (++++ = 20-50 fluorescent cells per optical field)”, the “expression of Cytokeratin 18” value [1] was “+++ (+++ = 10-20 fluorescent cells per optical field)” and the “expression of Cytokeratin 19” value [1] was “+++++ (+++++ > 50 fluorescent cells per optical field)”. The “expression of Cytokeratins 7/17” value [1] was “++++ (++++ = 20-50 fluorescent cells per optical field)”, the “expression of Human albumin” value [1] was “+++++ (+++++ > 50 fluorescent cells per optical field)” and the expression of alpha-fetoprotein [1] was “++ (++ = 6-10 fluorescent cells per optical field)”. The “expression of c-KIT” value [1] was “+ (+ = 1-5 fluorescent cells per optical field)”, the “expression of c-Met” value [1] was “++ (++ = 6-10 fluorescent cells per optical field)” and the “expression of CD14” value (THP-1 cells (PSC-THP1)) was “+ (+ = 1-5 fluorescent cells per optical field)”. The “expression of CD34” value (THP-1 cells (PSC-THP1)) was “−−−−−”, the “expression of Cytokeratin 7” value (THP-1 cells (PSC-THP1)) was “+++++ (+++++ > 50 fluorescent cells per optical field)” and the “expression of Cytokeratin 8” value (THP-1 cells (PSC-THP1)) was “++++ (++++ = 20-50 fluorescent cells per optical field)”. For the same molecule, the “expression of Cytokeratin 18” value (THP-1 cells (PSC-THP1)) was “+++ (+++ = 10-20 fluorescent cells per optical field)”, the “expression of Cytokeratin 19” value (THP-1 cells (PSC-THP1)) was “+++++ (+++++ > 50 fluorescent cells per optical field)” and the “expression of Cytokeratins 7/17” value (THP-1 cells (PSC-THP1)) was “++++ (++++ = 20-50 fluorescent cells per optical field)”. For the same molecule, the “expression of Human albumin” value (THP-1 cells (PSC-THP1)) was “+++++ (+++++ > 50 fluorescent cells per optical field)”, the expression of alpha-fetoprotein (THP-1 cells (PSC-THP1)) was “++ (++ = 6-10 fluorescent cells per optical field)” and the “expression of c-KIT” value (THP-1 cells (PSC-THP1)) was “+ (+ = 1-5 fluorescent cells per optical field)”. For the same molecule, the “expression of c-Met” value (THP-1 cells (PSC-THP1)) was “++ (++ = 6-10 fluorescent cells per optical field)”, the “expression of CD29” value [2] was “+ (+ = 1-5 fluorescent cells per optical field)” and the “expression of CD71” value [2] was “++ (++ = 6-10 fluorescent cells per optical field)”. For the same molecule, the “expression of CD90” value [2] was “+ (+ = 1-5 fluorescent cells per optical field)”, the “expression of CD105” value [2] was “+ (+ = 1-5 fluorescent cells per optical field)” and the “expression of Human albumin” value [2] was “++ (++ = 6-10 fluorescent cells per optical field)”. For the same molecule, the expression of alpha-fetoprotein [2] was “+ (+ = 1-5 fluorescent cells per optical field)”, the “expression of c-KIT” value [2] was “+ (+ = 1-5 fluorescent cells per optical field)” and the “expression of CD71” value (Synovial cells (SynCs)) was “++ (++ = 6-10 fluorescent cells per optical field)”. For the same molecule, the “expression of Human albumin” value (Synovial cells (SynCs)) was “+++ (+++ = 10-20 fluorescent cells per optical field)”, the expression of alpha-fetoprotein (Synovial cells (SynCs)) was “+ (+ = 1-5 fluorescent cells per optical field)” and the “expression of c-KIT” value (Synovial cells (SynCs)) was “+ (+ = 1-5 fluorescent cells per optical field)”.
